# According to ChEMBL document CHEMBL3045355, “Synthesis of a New Series of 4-Aryl-1,4-Dihydropyridines with Calcium Channel Blocking and Vasodilatory Activity” (Med Chem Res, 2012):
# Assays:
# [1] = biological target: T1, Voltage-gated L-type calcium channel (Rattus norvegicus, UniProt P22002+Q02485+P27732); test: Inhibition of L-type calcium channel in Rattus norvegicus Wistar (rat) thoracic aorta assessed as relaxation of KCl-induced vasoconstriction after 30 min relative to control; assay type: tissue-based
# [2] = biological target: T1, Voltage-gated L-type calcium channel; test: Inhibition of L-type calcium channel in neonatal rat cortical neurons assessed as inhibition of veratridine-induced intracellular calcium level incubated for 30 min followed by veratridine induction for 2 min by fluorimetric analysis; assay type: cell-based
# [3] = biological target: T1, Voltage-gated L-type calcium channel; test: Inhibition of L-type calcium channel in Rattus norvegicus Wistar (rat) thoracic aorta assessed as relaxation of phenylephrine-induced vasoconstriction after 30 min relative to control; assay type: tissue-based
SMILES,IC50 [1] [µM],pIC50 [1],IC50 [2] [µM],IC50 [3] [µM],pIC50 [3]
CCOC(=O)C1=C(C)NC(C)=C(C(=O)OC)C1c1cccc(OCC(=O)N2CCCCC2)c1 (configuration not stated),1.25,5.9,,,
CCOC(=O)C1=C(C)NC(C)=C(C(=O)OC)C1c1ccc(OCC(=O)N2CCCCC2)c(OC)c1 (configuration not stated),3.89,5.41,,,
COC(=O)C1=C(C)NC(C)=C(C(=O)OC)C1c1ccc(OCC(=O)N2CCCC2)c(OC)c1,,,5.6,0.83,6.08
COC(=O)C1=C(C)NC(C)=C(C(=O)OC)C1c1ccc(OCC(=O)N2CCCCC2)c(OC)c1,,,10,,
COC(=O)C1=C(C)NC(C)=C(C(=O)OC)C1c1ccc(OCC(=O)N2CCN(C)CC2)c(OC)c1,,,9.1,6.91,5.16
COC(=O)C1=C(C)NC(C)=C(C(=O)OC)C1c1ccc(OCC(=O)n2ccnc2)c(OC)c1,,,10.1,,
COC(=O)C1=C(C)NC(C)=C(C(=O)OC)C1c1ccc(OCC(=O)N2CCCC(C)C2)c(OC)c1 (configuration not stated),,,10,1.73,5.76
COC(=O)C1=C(C)NC(C)=C(C(=O)OC)C1c1cccc(OCC(=O)N2CCN(C)CC2)c1,,,10,9.54,5.02

# Second part, the molecule after the results:
IC50 [1] [µM],pIC50 [1],IC50 [2] [µM],IC50 [3] [µM],pIC50 [3],SMILES
12.8,4.89,,,,CCOC(=O)C1=C(C)NC(C)=C(C(=O)OC)C1c1ccc(OCC(=O)OC)c(OC)c1 (configuration not stated)
,,2.5,,,COC(=O)C1=C(C)NC(C)=C(C(=O)OC)C1c1ccc(OCC(=O)NC(C)(C)C)c(OC)c1
,,2.1,,,COC(=O)COc1ccc(C2C(C(=O)OC)=C(C)NC(C)=C2C(=O)OC)cc1
,,10,1.44,5.84,COC(=O)COc1cccc(C2C(C(=O)OC)=C(C)NC(C)=C2C(=O)OC)c1
,,9.9,0.64,6.19,COC(=O)C1=C(C)NC(C)=C(C(=O)OC)C1c1cccc(OCC(=O)N2CCOCC2)c1
,,3.6,4.57,5.34,COC(=O)C1=C(C)NC(C)=C(C(=O)OC)C1c1cccc(OCC(=O)N2CCCC2)c1
,,10,,,COC(=O)C1=C(C)NC(C)=C(C(=O)OC)C1c1cccc(OCC(=O)N2CCCCC2)c1
